According to paper PMC8286840, “Identifying SARS-CoV-2 antiviral compounds by screening for small molecule inhibitors of Nsp3 papain-like protease” (Biochemical Journal, 2021):
Structures can show the parent of a compound that is named as a salt. Where two headings read alike, the source gives them in different places.

What was measured:
[1] = molecular target: T1, SARS-CoV-2 PLpro (nsp3 1564–1878) (Severe acute respiratory syndrome coronavirus 2, UniProt P0DTD1); assay: biochemical; design: FRET-quenched peptide (Pro3) cleavage by PLpro, 10 min pre-incubation, slope over 20 min, normalised to no-compound control; conditions: low concentration screen, read-out: % of control remaining
Description: (§1) The plates were organized with columns 3–22 containing the compounds; the remaining columns were used for reaction controls including substrate only and substrate with enzyme but no compound (Figure 3Aii). The PLpro enzyme was pre-incubated with the compounds for 10 min, and then the reaction was initiated by the addition of substrate. […] We incubated the inhibitors with PLpro before the enzymatic reaction so that the slow-binding inhibitors will not be missed out [21]. […] Fluorescence was read on a Spark multimode microplate reader (Tecan) with an excitation wavelength at 330 nm and emission wavelength at 420 nm. […] An amount of 5 µl of the enzyme was pre-incubated with compounds for 10 min before the addition of 15 µl substrate. Fluorescence was monitored at 2 min for 20 min with 3 min intervals giving a total of seven readings.

[2] = molecular target: T1, SARS-CoV-2 PLpro (nsp3 1564–1878); assay: biochemical; design: FRET-quenched peptide (Pro3) cleavage by PLpro, 10 min pre-incubation, slope over 20 min, normalised to no-compound control; conditions: high concentration screen, read-out: % of control remaining
Description: as §1

CCCn1c(=O)c2c(ncn2C)n(CCC)c1=O [1,3-Dipropyl-7-methylxanthine]
remaining activity at 1.25 µM ([1]; Well no.=448): 102%
remaining activity at 3.75 µM ([2]; Well no.=448): 101%

COc1c2ccoc2cc2oc(C)cc(=O)c12 [Visnagin]
remaining activity at 1.25 µM ([1]; Well no.=3689): 99.6%
remaining activity at 3.75 µM ([2]; Well no.=3689): 101%

CCCn1c(=O)c2[nH]c(-c3ccc(OCC(=O)Nc4ccc(C#N)cc4)cc3)nc2n(CCC)c1=O [MRS 1754]
remaining activity at 1.25 µM ([1]; Well no.=788): 97.4%
remaining activity at 1.25 µM ([1]; Well no.=8407): 101%
remaining activity at 3.75 µM ([2]; Well no.=788): 97.6%
remaining activity at 3.75 µM ([2]; Well no.=8407): 95.8%

CCC[C@H](N[C@@H](C)C(=O)N1[C@H](C(=O)O)C[C@@H]2CCCC[C@@H]21)C(=O)OCC [Perindopril Erbumine]
remaining activity at 1.25 µM ([1]; Well no.=8778): 89.7%
remaining activity at 3.75 µM ([2]; Well no.=8778): 84.8%

C=C[C@](C)(O)CC[C@@H]1[C@@]2(C)CCCC(C)(C)[C@@H]2CC[C@@]1(C)O [Sclareol]
remaining activity at 1.25 µM ([1]; Well no.=3388): 91.2%
remaining activity at 3.75 µM ([2]; Well no.=3388): 96.1%

CCCCCCCCCCCCCCCC(=O)C(F)(F)F [PACOCF3]
remaining activity at 1.25 µM ([1]; Well no.=4390): 102%
remaining activity at 3.75 µM ([2]; Well no.=4390): 100%

COc1ccc(S(=O)(=O)N(CCO)c2ccccc2CN(C)C/C=C/c2ccc(Cl)cc2)cc1 [KN-93]
remaining activity at 1.25 µM ([1]; Well no.=2556): 103%
remaining activity at 3.75 µM ([2]; Well no.=2556): 102%

CC(C)[C@H](O)C(=O)N[C@@H](C)C(=O)N[C@@H]1C(=O)N(C)CCc2ccccc21 [Semagacestat (LY450139)]
remaining activity at 1.25 µM ([1]; Well no.=4614): 102%
remaining activity at 3.75 µM ([2]; Well no.=4614): 101%

COc1cc(C(O)C(=O)O)ccc1O (racemic)
remaining activity at 1.25 µM ([1]; Well no.=606): 96%
remaining activity at 3.75 µM ([2]; Well no.=606): 97.2%

COc1cc(-c2oc3cc(O)ccc3c(=O)c2O)ccc1O [Geraldol]
remaining activity at 1.25 µM ([1]; Well no.=3512): 98.4%
remaining activity at 3.75 µM ([2]; Well no.=3512): 102%

Oc1ccc2c3c1O[C@H]1c4[nH]c5ccccc5c4C[C@@]4(O)[C@@H](C2)N(CC2CC2)CC[C@]314 [Naltrindole.HCl]
remaining activity at 1.25 µM ([1]; Well no.=1644): 106%
remaining activity at 3.75 µM ([2]; Well no.=1644): 104%

CCN[C@H]1C[C@H](C)S(=O)(=O)c2sc(S(N)(=O)=O)cc21 [Dorzolamide.HCl]
remaining activity at 1.25 µM ([1]; Well no.=1878): 96.7%
remaining activity at 3.75 µM ([2]; Well no.=1878): 96.1%

O=C1CC[C@@]2(O)[C@H]3Cc4ccc(O)c5c4[C@@]2(CCN3CC2CC2)[C@H]1O5 [Naltrexone.HCl]
remaining activity at 1.25 µM ([1]; Well no.=1883): 88.3%
remaining activity at 3.75 µM ([2]; Well no.=1883): 92.8%

COc1cccc2cc(-c3nc([C@H]4CC[C@H](C(=O)O)CC4)n4ncnc(N)c34)[nH]c12 [OSI-027]
remaining activity at 1.25 µM ([1]; Well no.=4960): 99.2%
remaining activity at 3.75 µM ([2]; Well no.=4960): 95.6%

[N-]=[N+]=N[C@]1(CO)O[C@@H](n2ccc(N)nc2=O)[C@@H](O)[C@@H]1O [RO-9187]
remaining activity at 1.25 µM ([1]; Well no.=7762): 98.5%
remaining activity at 3.75 µM ([2]; Well no.=7762): 101%

c1ccc(CN2CCC3(CCCc4ccccc43)CC2)cc1 [L-687,384 hydrochloride]
remaining activity at 1.25 µM ([1]; Well no.=1123): 96.4%
remaining activity at 3.75 µM ([2]; Well no.=1123): 97.2%

Cc1cc(C(C)(C)C)cc(C)c1CC1=NCCN1 [Xylometazoline (hydrochloride)]
remaining activity at 1.25 µM ([1]; Well no.=6281): 106%
remaining activity at 3.75 µM ([2]; Well no.=6281): 106%

CC(C)(C)c1cnc(CSc2cnc(NC(=O)C3CCNCC3)s2)o1 [SNS-032]
remaining activity at 1.25 µM ([1]; Well no.=2845): 105%
remaining activity at 3.75 µM ([2]; Well no.=2845): 104%

CC[C@@H]1/C=C(\C)C[C@H](C)C[C@H](OC)[C@H]2O[C@@](O)(C(=O)C(=O)N3CCCC[C@H]3C(=O)O[C@H](/C(C)=C/[C@@H]3CC[C@H](Cl)[C@H](OC)C3)[C@H](C)[C@@H](O)CC1=O)[C@H](C)C[C@@H]2OC [Pimecrolimus]
remaining activity at 1.25 µM ([1]; Well no.=8178): 93.5%
remaining activity at 3.75 µM ([2]; Well no.=8178): 91.3%

OC[C@H]1OC(O)[C@H](O)[C@@H](O)[C@@H]1O (some centres unmarked) [Dextrose]
remaining activity at 1.25 µM ([1]; Well no.=6497): 97.3%
remaining activity at 3.75 µM ([2]; Well no.=6497): 99.3%

CCCCCCCC/C=C\CCCCCCCCCCC(=O)O [12(Z) Heneicosenoic acid]
remaining activity at 1.25 µM ([1]; Well no.=4452): 94%
remaining activity at 3.75 µM ([2]; Well no.=4452): 102%

CC(C)(Oc1ccc(C(=O)c2ccc(Cl)cc2)cc1)C(=O)O [Fenofibric acid]
remaining activity at 1.25 µM ([1]; Well no.=8204): 106%
remaining activity at 3.75 µM ([2]; Well no.=8204): 104%

CC/C=C\C/C=C\C/C=C\C/C=C\C/C=C\CCCCCC(=O)O [Docosapentaenoic acid]
remaining activity at 1.25 µM ([1]; Well no.=4347): 105%
remaining activity at 1.25 µM ([1]; Well no.=4492): 93.7%
remaining activity at 3.75 µM ([2]; Well no.=4347): 105%
remaining activity at 3.75 µM ([2]; Well no.=4492): 91.7%

O=C[C@H](Cl)[C@@H](O)[C@H](O)[C@H](O)CO [2-Chloro-2-deoxy-D-glucose]
remaining activity at 1.25 µM ([1]; Well no.=441): 103%
remaining activity at 3.75 µM ([2]; Well no.=441): 104%

CC(C)(C#N)c1ccc(N2C(=O)OCc3cnc4ccc(-c5cnc6ccccc6c5)cc4c32)cc1 [ETP-46464]
remaining activity at 1.25 µM ([1]; Well no.=5557): 101%
remaining activity at 3.75 µM ([2]; Well no.=5557): 97.9%

O=c1[nH]c2ccc(Cl)cc2c(N[C@@H]2CN3CCC2CC3)c1-c1nc2ccccc2[nH]1 [CHIR-124]
remaining activity at 1.25 µM ([1]; Well no.=5338): 96.2%
remaining activity at 3.75 µM ([2]; Well no.=5338): 97.2%

COc1cc(N)c(Cl)cc1C(=O)OCCN1CCCCC1 [ML 10302]
remaining activity at 1.25 µM ([1]; Well no.=5486): 98.8%
remaining activity at 3.75 µM ([2]; Well no.=5486): 100%

COc1cc(C(=O)O[C@H]2C/C(C)=C/CC/C(C)=C/[C@H](O)[C@@H]2C(C)C)ccc1O [Tschimganidin]
remaining activity at 1.25 µM ([1]; Well no.=3207): 89.2%
remaining activity at 3.75 µM ([2]; Well no.=3207): 100%

CN1[C@@H]2CC[C@H]1C[C@@H](OC(=O)[C@H](CO)c1ccccc1)C2 [Hyoscyamine]
remaining activity at 1.25 µM ([1]; Well no.=3727): 94.8%
remaining activity at 3.75 µM ([2]; Well no.=3727): 101%

C[N+](C)(C)CCCCCC[N+](C)(C)C [Hexamethonium dichloride]
remaining activity at 1.25 µM ([1]; Well no.=656): 90.7%
remaining activity at 3.75 µM ([2]; Well no.=656): 89.9%

CCOc1nc2cccc(C(=O)OC(C)OC(=O)OC3CCCCC3)c2n1Cc1ccc(-c2ccccc2-c2nn[nH]n2)cc1 (centres unmarked) [Candesartan (Cilexetil)]
remaining activity at 1.25 µM ([1]; Well no.=7673): 95.7%
remaining activity at 3.75 µM ([2]; Well no.=7673): 92.5%

CC(COc1ccccc1)N(CCCl)Cc1ccccc1 (centres unmarked) [Phenoxybenzamine (hydrochloride)]
remaining activity at 1.25 µM ([1]; Well no.=6797): 99.8%
remaining activity at 3.75 µM ([2]; Well no.=6797): 93.2%

CC(C)(C)C(=O)OCOC(=O)[C@@H]1N2C(=O)[C@@H](/N=C/N3CCCCCC3)[C@H]2SC1(C)C [Pivmecillinam]
remaining activity at 1.25 µM ([1]; Well no.=5414): 93.3%
remaining activity at 3.75 µM ([2]; Well no.=5414): 98.6%

Cc1ncc([N+](=O)[O-])n1CC(O)CCl (centres unmarked) [Ornidazole]
remaining activity at 1.25 µM ([1]; Well no.=4939): 101%
remaining activity at 3.75 µM ([2]; Well no.=4939): 97.6%

C[C@@]1(CO)[C@H](O)CC[C@@]2(C)[C@H]1CC[C@H]1C[C@@H]3C[C@@]12CC[C@]3(O)CO [Aphidicolin]
remaining activity at 1.25 µM ([1]; Well no.=3476): 104%
remaining activity at 3.75 µM ([2]; Well no.=3476): 101%
